Marks after values point to notes of the source that are not given here. Square brackets hold non-standard residues; d marks the D form. Peptide text beside a SMILES is read from it.
Tests used:
[1] = Solubility noted in the compound description; assay type: physicochemical; conditions: water and DMSO
Male Swiss Webster mice = test: Mouse acetic acid-induced writhing test (i.c.v. peptides); assay type: in vivo; conditions: for Potency ratio (95% CL): as compared with HN; for AD50 (nmol/mouse) (95% CL): method #2, percent analgesia; for AD50 (nmol/mouse) (95% CL) / ED50 (nmol/mouse) (95% CL): acetic acid i.p. 5 min after peptide, 95% CL in brackets; for ED50 (nmol/mouse) (95% CL): method #1, percent of mice showing analgesia
Description: Mice (male 20-25 g, Swiss Webster) were obtained from Charles River (Canadian Breeding Farm, St. Constant, Quebec). They were housed five per cage in a room with controlled temperature (22±2° C.), humidity and artificial light (06.30-19 h). […] The experiments were authorized by the animal care committee of the University of Ottawa in accordance […] guidelines of the Canadian Council on Animal Care. The i.c.v. administrations of the peptides were performed as described by Shukla et al. (Shukla et al., Brain Res. 591, 176, 1992 the disclosure of which is incorporated by reference). Peptides were dissolved in double-distilled sterile water (vehicle) and 10 μl of the peptide solution or vehicle was delivered gradually within approximately 3 sec. […] The administration site was confirmed by injecting Indian ink in preliminary experiments. Mouse Writhing Test: Antinociceptive activity of the peptides was evaluated using the acetic acid-induced writhing test according to a modification (Shukla et al. Brain Research 591, 176, 1992 the disclosure of which is incorporated by reference) of the method of Hayashi and Takemori (Eur.J. Pharmacol. 16 63, 1971 the disclosure of which is incorporated by reference). […] An abdominal stretch is characterized by the contraction of the abdominal muscles, the arching of the back vent-ally such that the abdomen touches the bedding surface and the extension of one or both hind limbs. Mice were used once and then killed immediately. Groups of 10 mice were used for each dose. […] Biochem. Psycholpharmacol. 8:191, 1974, the disclosure of which is incorporated by reference). […] Pharmacol. Exp. Ther. 96 99, 1949, the disclosure of which is incorporated by reference) using procedure 47 of the computer program of Tallarida and Murray (in “Manual of pharmacological calculations with computer programs”, 2nd ed., Springer, New York, 1987, the disclosure of which is incorporated by reference). In the second case (method #2), the percentage of analgesia is calculated for each dose by the formula: [(mean number of writhes in control group-mean number of writhes for the test group)/(mean number of writhes in control group)×100]. […] Pharmacol. Exp. Ther 96, 99, 1949 the disclosure in which is incorporated by reference) using procedure 47 of the computer program of Tallarida and Murray (in “Manual of pharmacological calculations with computer programs”. 2nd ed., Springer, New York, 1987, the disclosure in which is incorporated by reference).

| Compound | Solubility [1] | Potency ratio (95% CL) (Male Swiss Webster mice; method #2 (AD50)) | AD50 (nmol/mouse) (95% CL) (Male Swiss Webster mice) | Potency ratio (95% CL) (Male Swiss Webster mice; method #1 (ED50)) | ED50 (nmol/mouse) (95% CL) (Male Swiss Webster mice) |
| --- | --- | --- | --- | --- | --- |
| N=C(N)NCCC[C@H](NC(=O)CNC(=O)[C@H](CCC(N)=O)NC(=O)[C@@H](N)CCCNC(=N)N)C(=O)O [Peptide 1, H-Arg-Gln-Gly-Arg-OH] (H-RQGR-OH) | soluble in water and DMSO | 1.84 (0.3-12.5) | 12.8 (3.6-46.1) nmol/mouse |  |  |
| N=C(N)NCCC[C@H](NC(=O)CNC(=O)[C@H](CCC(N)=O)NC(=O)CN)C(=O)O [Peptide 2, H-Gly-Gln-Gly-Arg-OH] (H-GQGR-OH) | Soluble in water and DMSO | 0.91 (0.11-7.63) | 25.9 (5.9-113) nmol/mouse | 2.0 (0.6-6.3) | 11.3 (4.2-30.4) nmol/mouse |
| C[C@H](NC(=O)[C@H](CCC(N)=O)NC(=O)CN)C(=O)N[C@@H](CCCN=C(N)N)C(=O)O [Peptide 3, H-Gly-Gln-Ala-Arg-OH] (H-GQAR-OH) | Soluble in water and DMSO |  |  |  |  |
| C[C@H](NC(=O)[C@H](CCC(N)=O)NC(=O)CN)C(=O)N[C@@H](CCCNC(=N)N)C(=O)O [Peptide 3, H-Gly-Gln-Ala-Arg-OH] (H-GQAR-OH) |  | 6.92 (0.84-56.2)* | 3.41 (0.8-14.6) nmol/mouse | 5.7 (2.0-15.9) | 3.9 (1.7-9.1) nmol/mouse |
| C[C@H](NC(=O)[C@H](CCC(N)=O)NC(=O)[C@@H](N)CCCNC(=N)N)C(=O)N[C@@H](CCCNC(=N)N)C(=O)O [Peptide 4, H-Arg-Gln-Ala-Arg-OH] | Soluble in water and DMSO | 1.86 (0.27-12.8) | 12.7 (3.5-46.1) nmol/mouse | 4.5 (1.4-14.3) | 4.9 (1.8-13.2) nmol/mouse |
| C[C@@H]1NC(=O)[C@H](CCC(N)=O)NC(=O)CNC(=O)[C@H](CCCNC(=N)N)NC1=O [Peptide 5, cyclic(-Gly-Gln-Ala-Arg-)] (cyclo(ARGQ)) | Soluble in water and DMSO | 1.77 (0.11-28.1) | 13.3 (1.6-114) nmol/mouse | 7.7 (1.3-46.6) | 2.9 (0.8 -9.8) nmol/mouse |
| C[C@@H]1NC(=O)[C@H](CCC(N)=O)NC(=O)CNC(=O)[C@H](CCCNC(=N)N)NC(=O)[C@H](C)NC(=O)[C@H](CCC(N)=O)NC(=O)CNC(=O)[C@H](CCCNC(=N)N)NC1=O [Peptide 5B] (cyclo(ARGQARGQ)) | Soluble in water and DMSO | 0.93 (0.22-3.9) | 25.3 (11.6-55.1) nmol/mouse |  |  |
| C[C@@H]1NC(=O)[C@H](CCC(N)=O)NC(=O)[C@H](CCCNC(=N)N)NC(=O)[C@H](CCCNC(=N)N)NC1=O [Peptide 6, cyclic(-Arg-Gln-Ala-Arg-)] | Soluble in water and DMSO | 0.94 (0.22-3.98) | 25.1 (11.3-55.6) nmol/mouse |  |  |
| C[C@@H]1NC(=O)[C@H](CCC(N)=O)NC(=O)[C@H](CCCNC(=N)N)NC(=O)[C@H](CCCNC(=N)N)NC(=O)[C@H](C)NC(=O)[C@H](CCC(N)=O)NC(=O)[C@H](CCCNC(=N)N)NC(=O)[C@H](CCCNC(=N)N)NC1=O [Peptide 6B] (cyclo(ARRQARRQ)) | Soluble in water and DMSO |  |  |  |  |
| N=C(N)NCCC[C@@H]1NC(=O)[C@H](Cc2ccc(O)cc2)NC(=O)[C@H](CCC(N)=O)NC(=O)CNC1=O [Peptide 7, cyclic(-Gly-Gln-Tyr-Arg-)] (cyclo(GQYR)) |  | 5.6 (1.25-25)* | 4.21 (1.80-9.87) nmol/mouse |  |  |
| NC(=O)CC[C@@H]1NC(=O)CNC(=O)[C@H](CCCN=C(N)N)NC(=O)[C@H](Cc2ccc(O)cc2)NC1=O [Peptide 7, cyclic(-Gly-Gln-Tyr-Arg-)] (cyclo(GQYR)) | Soluble in water and DMSO |  |  |  |  |
| N=C(N)NCCC[C@H]1NC(=O)[C@H](Cc2ccc(O)cc2)NC(=O)[C@H](CCC(N)=O)NC(=O)CNC1=O [Peptide 8, cyclic(-Gly-Gln-Tyr-D-Arg-)] (cyclo(GQY[dR])) |  | 5.35 (1.04-26.4)* | 4.41 (1.7-11.9) nmol/mouse |  |  |
| N=C(N)NCCC[C@H]1NC(=O)[C@H](Cc2ccc(O)cc2)NC(=O)[C@@H](CCC(N)=O)NC(=O)CNC1=O [Peptide 9, cyclic(-Gly-D-Gln-Tyr-D-Arg-)] (cyclo(G[dQ]Y[dR])) |  | 10.6 (3.6-31.0)* | 2.23 (1.45-3.43) nmol/mouse |  |  |
| NC(=O)CC[C@H]1NC(=O)CNC(=O)[C@@H](CCCN=C(N)N)NC(=O)[C@H](Cc2ccc(O)cc2)NC1=O [Peptide 9, cyclic(-Gly-D-Gln-Tyr-D-Arg-)] (cyclo(G[dQ]Y[dR])) | Soluble in water and DMSO |  |  |  |  |
| H-RQGRTLYGF-OH [Peptide 13] |  | 2.43 (0.2-18) | 9.7 (2.5-37.4) nmol/mouse | 3.0 (0.8-11.2) | 7.5 (2.3 -24.4) nmol/mouse |

Reference: US6566327B1, “Histogranin peptides and their analgesic use” (University of Ottawa, priority 1997, dated 2003)
